Experimental data published in US20090270394A1, “CYCLYLAMINE DERIVATIVES AS CALCIUM CHANNEL BLOCKERS” (priority 2008, published 2009).

Tests used:
Human Cav2.2 channels = molecular target: T1, Human Cav2.2 channels (Homo sapiens, UniProt Q00975); experiment: Fluorescent assay for Cav2.2 channels using potassium depolarization to initiate channel opening; type: cell-based; details: for IC50: 30 mM K (block of open and inactivated channels), read-out: Cav 2.2 Activity IC50 at 30 mM K; for inhibition at 10 µM: 10 μM compound, read-out: Cav 2.2 Activity % Inh at 10 μM; for inhibition at 30 µM: 30 μM compound, read-out: Cav 2.2 Activity % Inh at 30 μM
T1 construct: expressed in transfected cells
T1 sequence (Q00975 whole entry): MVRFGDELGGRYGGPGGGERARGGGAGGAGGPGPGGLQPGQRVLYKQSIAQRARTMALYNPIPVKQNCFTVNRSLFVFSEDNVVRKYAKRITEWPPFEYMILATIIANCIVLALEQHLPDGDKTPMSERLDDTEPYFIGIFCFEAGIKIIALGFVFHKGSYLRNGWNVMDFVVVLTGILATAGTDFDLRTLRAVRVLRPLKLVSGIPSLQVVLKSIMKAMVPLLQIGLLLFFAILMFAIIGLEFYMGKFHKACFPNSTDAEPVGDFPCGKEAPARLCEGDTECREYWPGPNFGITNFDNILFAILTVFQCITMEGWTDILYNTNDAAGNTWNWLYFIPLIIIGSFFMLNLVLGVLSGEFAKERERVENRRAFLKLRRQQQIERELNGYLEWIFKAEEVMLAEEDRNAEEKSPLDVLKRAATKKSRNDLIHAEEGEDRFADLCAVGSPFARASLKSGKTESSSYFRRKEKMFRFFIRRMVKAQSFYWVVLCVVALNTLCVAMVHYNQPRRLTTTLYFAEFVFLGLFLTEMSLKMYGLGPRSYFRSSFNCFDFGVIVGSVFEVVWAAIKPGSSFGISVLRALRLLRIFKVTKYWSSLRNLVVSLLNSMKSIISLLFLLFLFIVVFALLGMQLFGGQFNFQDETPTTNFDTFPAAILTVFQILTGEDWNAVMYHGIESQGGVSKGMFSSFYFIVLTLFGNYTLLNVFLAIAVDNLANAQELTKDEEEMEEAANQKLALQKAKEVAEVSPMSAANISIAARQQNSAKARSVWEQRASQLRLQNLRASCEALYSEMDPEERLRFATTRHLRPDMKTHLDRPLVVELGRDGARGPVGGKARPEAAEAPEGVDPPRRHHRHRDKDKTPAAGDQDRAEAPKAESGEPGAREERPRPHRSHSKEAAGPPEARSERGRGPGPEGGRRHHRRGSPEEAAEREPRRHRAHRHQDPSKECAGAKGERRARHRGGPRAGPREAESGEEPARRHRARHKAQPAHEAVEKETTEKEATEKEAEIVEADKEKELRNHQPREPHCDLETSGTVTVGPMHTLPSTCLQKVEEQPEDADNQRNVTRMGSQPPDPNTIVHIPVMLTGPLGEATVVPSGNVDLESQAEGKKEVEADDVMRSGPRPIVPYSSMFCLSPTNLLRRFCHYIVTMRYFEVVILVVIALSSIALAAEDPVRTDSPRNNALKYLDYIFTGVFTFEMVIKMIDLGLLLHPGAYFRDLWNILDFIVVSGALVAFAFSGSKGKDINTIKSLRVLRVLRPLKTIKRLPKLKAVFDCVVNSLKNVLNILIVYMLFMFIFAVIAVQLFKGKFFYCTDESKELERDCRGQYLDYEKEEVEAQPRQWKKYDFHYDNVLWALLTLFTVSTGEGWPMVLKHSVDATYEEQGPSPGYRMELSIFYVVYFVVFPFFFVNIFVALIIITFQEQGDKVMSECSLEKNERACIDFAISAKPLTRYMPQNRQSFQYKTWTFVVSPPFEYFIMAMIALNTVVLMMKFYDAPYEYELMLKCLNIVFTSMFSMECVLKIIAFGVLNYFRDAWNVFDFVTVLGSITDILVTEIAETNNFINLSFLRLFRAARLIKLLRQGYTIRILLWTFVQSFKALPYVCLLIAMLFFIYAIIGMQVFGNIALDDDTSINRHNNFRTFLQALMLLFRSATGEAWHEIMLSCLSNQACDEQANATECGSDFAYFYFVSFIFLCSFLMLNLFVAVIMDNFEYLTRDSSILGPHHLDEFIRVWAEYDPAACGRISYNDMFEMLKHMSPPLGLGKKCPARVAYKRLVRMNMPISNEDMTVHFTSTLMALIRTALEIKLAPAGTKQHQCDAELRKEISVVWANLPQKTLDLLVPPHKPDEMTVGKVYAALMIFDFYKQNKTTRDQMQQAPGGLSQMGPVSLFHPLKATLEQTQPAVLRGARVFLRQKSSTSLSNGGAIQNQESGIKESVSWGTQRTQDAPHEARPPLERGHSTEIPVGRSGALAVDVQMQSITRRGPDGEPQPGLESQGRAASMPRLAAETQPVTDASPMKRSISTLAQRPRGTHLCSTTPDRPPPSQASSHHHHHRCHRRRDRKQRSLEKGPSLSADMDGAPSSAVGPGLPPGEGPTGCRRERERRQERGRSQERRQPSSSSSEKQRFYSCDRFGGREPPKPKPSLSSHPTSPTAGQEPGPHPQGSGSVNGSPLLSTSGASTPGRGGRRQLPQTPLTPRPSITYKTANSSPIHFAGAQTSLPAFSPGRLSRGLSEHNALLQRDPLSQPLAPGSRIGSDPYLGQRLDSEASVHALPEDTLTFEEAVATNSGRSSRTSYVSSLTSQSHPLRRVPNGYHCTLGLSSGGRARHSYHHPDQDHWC
T1 sequence (P54289 25-1103 partner): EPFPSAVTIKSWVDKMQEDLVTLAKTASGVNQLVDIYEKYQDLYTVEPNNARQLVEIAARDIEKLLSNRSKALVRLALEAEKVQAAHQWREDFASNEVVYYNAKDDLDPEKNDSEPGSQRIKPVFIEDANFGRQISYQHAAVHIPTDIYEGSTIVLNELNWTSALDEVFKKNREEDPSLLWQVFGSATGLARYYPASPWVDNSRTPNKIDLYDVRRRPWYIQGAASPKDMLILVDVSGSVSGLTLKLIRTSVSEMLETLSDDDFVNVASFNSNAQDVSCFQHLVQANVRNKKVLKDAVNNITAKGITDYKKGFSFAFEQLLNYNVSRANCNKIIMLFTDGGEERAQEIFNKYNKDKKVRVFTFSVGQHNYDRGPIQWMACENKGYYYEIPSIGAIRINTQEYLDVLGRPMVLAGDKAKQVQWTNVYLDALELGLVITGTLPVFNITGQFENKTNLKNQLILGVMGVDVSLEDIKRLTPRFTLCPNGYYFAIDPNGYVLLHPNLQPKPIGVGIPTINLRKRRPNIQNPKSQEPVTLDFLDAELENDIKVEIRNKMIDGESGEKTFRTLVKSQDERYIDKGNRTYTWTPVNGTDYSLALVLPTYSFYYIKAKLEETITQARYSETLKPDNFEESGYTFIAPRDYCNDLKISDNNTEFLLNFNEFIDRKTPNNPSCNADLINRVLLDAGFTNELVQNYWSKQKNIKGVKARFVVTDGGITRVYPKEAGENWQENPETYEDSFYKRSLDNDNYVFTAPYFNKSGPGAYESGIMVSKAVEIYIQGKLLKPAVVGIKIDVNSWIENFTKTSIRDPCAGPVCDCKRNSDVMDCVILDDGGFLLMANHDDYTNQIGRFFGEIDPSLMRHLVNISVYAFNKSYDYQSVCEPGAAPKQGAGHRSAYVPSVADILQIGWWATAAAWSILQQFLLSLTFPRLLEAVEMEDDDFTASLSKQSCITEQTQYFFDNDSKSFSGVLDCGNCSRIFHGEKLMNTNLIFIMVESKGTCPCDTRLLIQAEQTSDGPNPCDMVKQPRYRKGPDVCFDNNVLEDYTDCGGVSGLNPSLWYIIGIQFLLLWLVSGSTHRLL
T1 sequence (P54284 whole entry partner): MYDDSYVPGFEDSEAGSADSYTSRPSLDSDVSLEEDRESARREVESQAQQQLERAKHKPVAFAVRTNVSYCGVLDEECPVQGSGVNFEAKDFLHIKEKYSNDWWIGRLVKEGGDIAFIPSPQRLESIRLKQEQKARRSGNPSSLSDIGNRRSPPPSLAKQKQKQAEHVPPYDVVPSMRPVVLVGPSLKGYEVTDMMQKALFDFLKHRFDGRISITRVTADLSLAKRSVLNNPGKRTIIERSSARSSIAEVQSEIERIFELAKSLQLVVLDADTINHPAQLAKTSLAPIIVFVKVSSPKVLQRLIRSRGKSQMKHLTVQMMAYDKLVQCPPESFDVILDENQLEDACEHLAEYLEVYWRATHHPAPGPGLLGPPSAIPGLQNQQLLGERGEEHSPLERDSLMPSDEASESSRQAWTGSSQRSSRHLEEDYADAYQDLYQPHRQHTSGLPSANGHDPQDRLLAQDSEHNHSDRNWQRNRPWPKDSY
Procedure, shortened: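 HEK293 cells stably expressing human Cav2.2 with alpha2-delta and beta subunits plus Kir2.3, dye-loaded, then held 30 min at 25° C. in 4, 12, 25 or 30 mM K+ pre-polarization buffer with compound.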

T-type calcium channels = details: cited from earlier work

| SMILES | IC50 (Human Cav2.2 channels) | inhibition at 10 µM (Human Cav2.2 channels) | inhibition at 30 µM (Human Cav2.2 channels) | fold selective for T-type over L-type channels (T-type calcium channels) |
| --- | --- | --- | --- | --- |
| COc1c(C(C)(C)C)cc(C(=O)NC2(C(=O)NCCCN3CCOCC3)CCCCC2)cc1C(C)(C)C [Compound 105, 3,5-di-tert-butyl-4-methoxy-N-(1-(3-morpholinopropylcarbamoyl)cyclohexyl)benzamide] | 704 nM | – | – | – |
| CC(C)(C)c1cc(C(=O)NC2(C(=O)NCc3ccc(S(C)(=O)=O)cc3)CCCCC2)cc(C(C)(C)C)n1 [Compound 106, 2,6-di-tert-butyl-N-(1-(4-(methylsulfonyl)benzylcarbamoyl)cyclohexyl)isonicotinamide] | 317 nM | – | – | – |
| CC(C)(C)c1cc(C(=O)NC2(C(=O)NCc3ccc(S(C)(=O)=O)cc3)CCCCC2)cc(C(C)(C)C)c1 [Compound 107, 3,5-di-tert-butyl-N-(1-(4-(methylsulfonyl)benzylcarbamoyl)cyclohexyl)benzamide] | 143 nM | – | – | – |
| COc1c(C(C)(C)C)cc(C(=O)NC2(C(=O)NCc3ccc(S(C)(=O)=O)cc3)CCCCC2)cc1C(C)(C)C [Compound 108, 3,5-di-tert-butyl-4-methoxy-N-(1-(4-(methylsulfonyl)benzylcarbamoyl)cyclohexyl)benzamide] | 81.6 nM | – | – | – |
| COc1ccc(CNC(=O)C2(NC(=O)c3cc(C(C)(C)C)c(O)c(C(C)(C)C)c3)CC2)cc1 [Compound 109, 3,5-di-tert-butyl-4-hydroxy-N-(1-(4-methoxybenzylcarbamoyl)cyclopropyl)benzamide] | 87.7 nM | 29.8% | 40% | – |
| COc1ccc(CNC(=O)C2(NC(=O)c3cc(C(C)(C)C)c(OC)c(C(C)(C)C)c3)CC2)cc1 [Compound 110, 3,5-di-tert-butyl-4-methoxy-N-(1-(4-methoxybenzylcarbamoyl)cyclopropyl)benzamide] | 121 nM | 100% | 101% | – |
| CC(C)(C)c1cc(C(=O)NC2(C(=O)Nc3ccccc3)CCCCC2)cc(C(C)(C)C)c1O [Compound 111, 3,5-di-tert-butyl-4-hydroxy-N-(1-(phenylcarbamoyl)cyclohexyl)benzamide] | 551 nM | 71.8% | 106% | – |
| CC(C)(C)c1cc(C(=O)NC2(C(=O)NCc3ccc(S(C)(=O)=O)cc3)CCCCC2)cc(C(C)(C)C)c1O [Compound 112, 3,5-di-tert-butyl-4-hydroxy-N-(1-(4-(methylsulfonyl)benzylcarbamoyl)cyclohexyl)benzamide] | 138 nM | 96.7% | 102% | – |
| COc1ccc(CNC(=O)C2(NC(=O)c3cc(C(C)(C)C)nc(C(C)(C)C)c3)CCOCC2)cc1 [Compound 113, 2,6-di-tert-butyl-N-(4-(4-methoxybenzylcarbamoyl)tetrahydro-2H-pyran-4-yl)isonicotinamide] | 59.4 nM | 79% | 93% | – |
| COc1ccc(CNC(=O)C2(NC(=O)c3cc(C(C)(C)C)c(OC)c(C(C)(C)C)c3)CCOCC2)cc1 [Compound 114, 4-(3,5-di-tert-butyl-4-methoxybenzamido)-N-(4-methoxybenzyl)tetrahydro-2H-pyran-4-carboxamide] | 32.4 nM | 90.8% | 92.4% | – |
| COc1ccc(CNC(=O)C2(NC(=O)c3cc(C(C)(C)C#N)cc(C(C)(C)C#N)c3)CCOCC2)cc1 [Compound 115, 4-(3,5-bis(2-cyanopropan-2-yl)benzamido)-N-(4-methoxybenzyl)tetrahydro-2H-pyran-4-carboxamide] | – | 53.5% | 73.4% | – |
| Cc1cc(CNC(=O)C2(NC(=O)c3cc(C(C)(C)C)c(O)c(C(C)(C)C)c3)CC2)no1 [Compound 116, 3,5-di-tert-butyl-4-hydroxy-N-(1-((5-methylisoxazol-3-yl)methylcarbamoyl)cyclopropyl)benzamide] | 943 nM | 92.5% | 98% | – |
| CC(C)(C)c1cc(C(=O)NC2(C(=O)NCc3ccc(NS(C)(=O)=O)cc3)CC2)cc(C(C)(C)C)c1O [Compound 117, 3,5-di-tert-butyl-4-hydroxy-N-(1-(4-(methylsulfonamido)benzylcarbamoyl)cyclopropyl)benzamide] | 1090 nM | 74.2% | 101% | – |
| COCC(=O)O[C@]1(CCN(C)CCCc2nc3ccccc3[nH]2)CCc2cc(F)ccc2[C@@H]1C(C)C [Mibefradil] | – | – | – | 10-30 fold |

More lines, main results first:

| IC50 (Human Cav2.2 channels) | inhibition at 10 µM (Human Cav2.2 channels) | inhibition at 30 µM (Human Cav2.2 channels) | SMILES | fold selective for T-type over L-type channels (T-type calcium channels) |
| --- | --- | --- | --- | --- |
| 388 nM | 75.4% | 77.6% | COc1ccc(C(=O)NC2(C(=O)NCc3cccc(C(F)(F)F)c3)CCCCC2)cc1C(C)(C)C#N [Compound 118, 3-(2-cyanopropan-2-yl)-4-methoxy-N-(1-(3-(trifluoromethyl)benzylcarbamoyl)cyclohexyl)benzamide] | – |
| – | 63.1% | – | CC(C)(C#N)c1cc(C(=O)NC2(C(=O)NCc3cccc(C(F)(F)F)c3)CCCCC2)ccn1 [Compound 119, 2-(2-cyanopropan-2-yl)-N-(1-(3-(trifluoromethyl)benzylcarbamoyl)cyclohexyl)isonicotinamide] | – |
| – | 61.2% | – | CC(C)(C)c1cc(C(=O)NC2(C(=O)Nc3cccc(C(F)(F)F)c3)CCOCC2)ccn1 [Compound 120, 2-tert-butyl-N-(4-(3-(trifluoromethyl)phenylcarbamoyl)tetrahydro-2H-pyran-4-yl)isonicotinamide] | – |
| – | 18.6% | 70.8% | CC(C)(C(N)=O)c1cccc(C(=O)NC2(C(=O)NCc3cccc(C(F)(F)F)c3)CCCCC2)c1 [Compound 121, 3-(1-amino-2-methyl-1-oxopropan-2-yl)-N-(1-(3-(trifluoromethyl)benzylcarbamoyl)cyclohexyl)benzamide] | – |
| – | 45.2% | 80.5% | CC(C)(C#N)c1ccc(C(=O)NC2(C(=O)NCc3ccccc3)CCCCC2)cc1 [Compound 122, N-(1-(benzylcarbamoyl)cyclohexyl)-4-(2-cyanopropan-2-yl)benzamide] | – |
| – | 53.5% | 27.3% | CC(C)(C#N)c1cccc(C(=O)NC2(C(=O)NCc3ccccc3)CCCCC2)c1 [Compound 123, N-(1-(benzylcarbamoyl)cyclohexyl)-3-(2-cyanopropan-2-yl)benzamide] | – |
| 810 nM | 84.2% | 74% | CC(C)(C#N)c1cccc(C(=O)NC2(C(=O)NCc3cccc(C(F)(F)F)c3)CCCCC2)c1 [Compound 124, 3-(2-cyanopropan-2-yl)-N-(1-(3-(trifluoromethyl)benzylcarbamoyl)cyclohexyl)benzamide] | – |
| 739 nM | 89.6% | 85.8% | CC(C)(C)NC(=O)C(C)(C)c1ccc(C(=O)NC2(C(=O)NCc3ccccc3)CCCCC2)cc1 [Compound 125, N-(1-(benzylcarbamoyl)cyclohexyl)-4-(1-(tert-butylamino)-2-methyl-1-oxopropan-2-yl)benzamide] | – |
| 273 nM | 102% | 104% | CC(C)(C)NC(=O)C(C)(C)c1ccc(C(=O)NC2(C(=O)NCc3cccc(C(F)(F)F)c3)CCCCC2)cc1 [Compound 126, 4-(1-(tert-butylamino)-2-methyl-1-oxopropan-2-yl)-N-(1-(3-(trifluoromethyl)benzylcarbamoyl)cyclohexyl)benzamide] | – |
